Assay [1] concerns Resistant Plutella xylostella R1 (multi-resistant larvae having the G4946E resistance mutation). The assay is described as follows: Resistant Plutella xylostella R1 (Diamond back moth) larvicide L3, feeding/contact, sprayed Chinese cabbage leaves. It counts as in vivo. Particulars: Plutella xylostella, 96 h, read-out: control of the resistant strain of Plutella xylostella R1. Here is the method:
Resistant Plutella xylostella R1 (Diamond back moth) larvicide L3, feeding/contact Chinese cabbage plants were sprayed with diluted test solutions in an application chamber. Cut off leaves were placed into petri dishes with wetted filter paper and infested 1 day after application with 10 L3 multi-resistant Plutella xylostella larvae having the G4946E resistance mutation.
Samples were assessed 4 days after infestation for mortality and growth regulation.
Chlorantraniliprole was used as standard and a resistance factor of 146 was obtained for this strain.
Plutella xylostella resistant strain R1 originally collected from Taiwan in 2012 that carries the RyR mutation G4946E conferring resistance to diamides. The strain is reared on cabbage plants (Brassica aleracea) and selected approximately every two weeks with chlorantraniliprole.

In assay [2] the test system is Resistant Plutella xylostella R4 (carries the RyR mutation G4946E). Briefly: Resistant Plutella xylostella R4 (Diamond back moth) larvicide L1, feeding/contact, artificial diet in 24-well plates. It counts as in vivo. Particulars: Plutella xylostella, 192 h, read-out: control of the resistant strain of Plutella xylostella R4. On the procedure:
Resistant Plutella xylostella R4 (Diamond back moth) larvicide L1, feeding/contact 24-well microtiter plates with artificial diet were treated with aqueous test solutions prepared from 10′000 ppm DMSO stock solutions by pipetting. After drying, around 30 Plutella eggs were pipetted through a plastic stencil onto a gel blotting paper and the plate was closed with it. The samples were assessed for mortality in comparison to untreated samples 8 days after infestation.
Chlorantraniliprole was used as standard and a resistance factor of 242 was obtained for this strain
Plutella xylostella resistant strain R4 originated in the lab in 2021 from crossing the R1 strain with a lab-reared susceptible P. xylostella strain (SUS). R4 can be reared and tested on artificial diet and also carries the RyR mutation G4946E conferring resistance to diamides. The strain is selected approximately every two weeks with chlorantraniliprole. The following compounds, according to the present invention, gave at least 80% control of the resistant strain of Plutella xylostella R4 at 50 ppm or below: P11, P18, P26, P31, P33, P34, P36, P38, P42, P43, P46, P49, P50, P52, P56, P58, P60, P61, P63, P64, P65, P66, P67, P73, P76, P84, P97, P99, P102, P105.

The test system of assay [3] is Plutella xylostella (Diamond back moth) ryanodine receptor, containing the G4946E resistance mutation. Briefly: In vitro calcium fluorescence assay (Fluo-8 NW, FDSS) in human embryonic kidney cells expressing the ryanodine receptor. The class given is cell-based. Particulars: table; EC50 (compound)/EC50 (cyantraniliprole); G4946E RyR in HEK cells. On the procedure:
Human embryonic kidney cells expressing the Plutella xylostella (Diamond back moth) ryanodine receptor, containing the G4946E resistance mutation, are loaded with Fluo-8 No Wash (NW) calcium-sensitive dye which responds by fluorescence to a change in intracellular calcium (e.g. stimulated by activation of ryanodine receptor). Test compounds are added in 10 rates to a 384-well plate containing dye-loaded cells and the fluorescent signal is measured using the Hamamatsu FDSS (Functional Drug Screening system). Dose-response curves are plotted to estimate the EC50. EC50 are normalized against an in-assay reference standard (cyantraniliprole) to address inter-assay variability. The ratio for a given compound is then obtained by the following formula:
REC50=EC50 (compound)/EC50 (cyantraniliprole).

As to `Cc1cc(I)cc(C(N)=O)c1NC(=O)c1cc(OCC(F)(F)F)nn1-c1ncccc1Cl` [Compound P11, N-(2-carbamoyl-4-iodo-6-methyl-phenyl)-2-(3-chloro-2-pyridyl)-5-(2,2,2-trifluoroethoxy)pyrazole-3-carboxamide], the pest or weed control at 50 µg/mL in assay [1] and in assay [2] was not below 80% each time. `Cc1cc(Cl)cc(C(N)=O)c1NC(=O)c1cc(Br)nn1-c1ncccc1Cl` [Compound P24, 5-bromo-N-(2-carbamoyl-4-chloro-6-methyl-phenyl)-2-(3-chloro-2-pyridyl)pyrazole-3-carboxamide]: in assay [3], the “REC50 (Compound of the invention)” value is listed as 0.18. The pest or weed control at 50 µg/mL in assay [1] is not below 80%. Turning to `Cc1cc(Cl)cc(C(N)=O)c1NC(=O)c1cc(C(F)(F)F)nn1-c1ncccc1Cl` [Compound P25, N-(2-carbamoyl-4-chloro-6-methyl-phenyl)-2-(3-chloro-2-pyridyl)-5-(trifluoromethyl)pyrazole-3-carboxamide], the “REC50 (Compound of the invention)” value in assay [3] is 0.18. Also, in assay [1], the pest or weed control at 50 µg/mL is not below 80%. In the same order, the values of `Cc1cc(I)cc(C(N)=O)c1NC(=O)c1cc(C(F)(F)F)nn1-c1ncccc1Cl` [Compound P27, N-(2-carbamoyl-4-iodo-6-methyl-phenyl)-2-(3-chloro-2-pyridyl)-5-(trifluoromethyl)pyrazole-3-carboxamide] are 0.18 and not below 80%. As for `Cc1cc(C#N)cc(C(N)=O)c1NC(=O)c1cc(Br)nn1-c1ncccc1Cl` [Compound P30, 5-bromo-N-(2-carbamoyl-4-cyano-6-methyl-phenyl)-2-(3-chloro-2-pyridyl) pyrazole-3-carboxamide], the “REC50 (Compound of the invention)” value in assay [3] amounted to 0.39. Besides, the pest or weed control at 50 µg/mL in assay [1] is not below 80%.

For `NC(=O)c1cc(Br)cc(Cl)c1NC(=O)c1cc(I)nn1-c1ncccc1Cl` [Compound P36, N-(4-bromo-2-carbamoyl-6-chloro-phenyl)-2-(3-chloro-2-pyridyl)-5-iodo-pyrazole-3-carboxamide], the pest or weed control at 50 µg/mL in assay [1] and in assay [2] was not below 80% throughout. Regarding `Cc1cc(Br)cc(C(N)=O)c1NC(=O)c1cc(Cn2ncc(C(F)(F)F)n2)nn1-c1ncccc1Cl` [Compound P38, N-(4-bromo-2-carbamoyl-6-methyl-phenyl)-2-(3-chloro-2-pyridyl)-5-[[4-(trifluoromethyl)triazol-2-yl]methyl]pyrazole-3-carboxamide], the pest or weed control at 50 µg/mL in assay [1] and in assay [2] was not below 80% each time. On to `NC(=O)c1cc(Br)cc(F)c1NC(=O)c1cc(C(F)(F)F)nn1-c1ncccc1Cl` [Compound P42, N-(4-bromo-2-carbamoyl-6-fluoro-phenyl)-2-(3-chloro-2-pyridyl)-5-(trifluoromethyl)pyrazole-3-carboxamide], for which the pest or weed control at 50 µg/mL in assay [2] was not below 80%.

In the case of `Cc1cc(Br)cc(C(N)=O)c1NC(=O)c1cc(Cn2nnc(-c3ccc(C(F)(F)F)cc3)n2)nn1-c1ncccc1Cl` [Compound P43, N-(4-bromo-2-carbamoyl-6-methyl-phenyl)-2-(3-chloro-2-pyridyl)-5-[[5-[4-(trifluoromethyl)phenyl]tetrazol-2-yl]methyl]pyrazole-3-carboxamide], the pest or weed control at 50 µg/mL in assay [1] and in assay [2] was not below 80% in each case. As to `NC(=O)c1cc(Br)cc(Br)c1NC(=O)c1cc(C(F)(F)F)nn1-c1ncccc1Cl` [Compound P46, 2-(3-chloro-2-pyridyl)-N-(2,4-dibromo-6-carbamoyl-phenyl)-5-(trifluoromethyl)-pyrazole-3-carboxamide], in assay [3], the “REC50 (Compound of the invention)” value amounted to 0.39. Moreover, the pest or weed control at 50 µg/mL in assay [2] was not below 80%. In the case of `NC(=O)c1cc(Cl)cc(Br)c1NC(=O)c1cc(Cn2ncc(C(F)(F)F)n2)nn1-c1ncccc1Cl` [Compound P52, N-(2-bromo-6-carbamoyl-4-chloro-phenyl)-2-(3-chloro-2-pyridyl)-5-[[4-(trifluoromethyl)triazol-2-yl]methyl] pyrazole-3-carboxamide], the pest or weed control at 50 µg/mL in assay [2] was not below 80%. Same read-out and setting: as for `Cc1cc(Cl)cc(C(N)=O)c1NC(=O)c1cc(OCC(F)F)nn1-c1ncccc1Cl` [Compound P56, N-(2-carbamoyl-4-chloro-6-methyl-phenyl)-2-(3-chloro-2-pyridyl)-5-(2,2-difluoroethoxy)pyrazole-3-carboxamide], the figure is not below 80%; as for `NC(=O)c1cc(I)cc(Cl)c1NC(=O)c1cc(C(F)(F)F)nn1-c1ncccc1Cl` [Compound P60, N-(2-carbamoyl-6-chloro-4-iodo-phenyl)-2-(3-chloro-2-pyridyl)-5-(trifluoromethyl)pyrazole-3-carboxamide], not below 80%; as for `NC(=O)c1cc(I)cc(Cl)c1NC(=O)c1cc(Br)nn1-c1ncccc1Cl` [Compound P61, 5-bromo-N-(2-carbamoyl-6-chloro-4-iodo-phenyl)-2-(3-chloro-2-pyridyl) pyrazole-3-carboxamide], not below 80%. Take `NC(=O)c1cc(I)cc(F)c1NC(=O)c1cc(C(F)(F)F)nn1-c1ncccc1Cl` [Compound P64, N-(2-carbamoyl-6-fluoro-4-iodo-phenyl)-2-(3-chloro-2-pyridyl)-5-(trifluoromethyl)pyrazole-3-carboxamide]: in assay [3], the “REC50 (Compound of the invention)” value worked out at 0.69. For the same compound, the pest or weed control at 50 µg/mL in assay [2] was not below 80%. For `NC(=O)c1cc(I)cc(F)c1NC(=O)c1cc(Br)nn1-c1ncccc1Cl` [Compound P65, 5-bromo-N-(2-carbamoyl-6-fluoro-4-iodo-phenyl)-2-(3-chloro-2-pyridyl) pyrazole-3-carboxamide], in assay [2], the pest or weed control at 50 µg/mL was not below 80%. On the same count and under the same terms, as for `Cc1cc(C#N)cc(C(N)=O)c1NC(=O)c1cc(I)nn1-c1ncccc1Cl` [Compound P66, N-(2-carbamoyl-4-cyano-6-methyl-phenyl)-2-(3-chloro-2-pyridyl)-5-iodo-pyrazole-3-carboxamide], the figure is not below 80%. On the same count and under the same terms, then `Cc1cc(Cl)cc(C(N)=O)c1NC(=O)c1cc(Br)nn1-c1ncccc1Br` [Compound P73, 5-bromo-2-(3-bromo-2-pyridyl)-N-(2-carbamoyl-4-chloro-6-methyl-phenyl)pyrazole-3-carboxamide], with not below 80%. Still for that read-out and setting: then `Cc1cc(Cl)cc(C(N)=O)c1NC(=O)c1cc(Cn2nnc(-c3ccc(F)cc3)n2)nn1-c1ncccc1Cl` [Compound P84, N-(2-carbamoyl-4-chloro-6-methyl-phenyl)-2-(3-chloro-2-pyridyl)-5-[[5-(4-fluorophenyl)tetrazol-2-yl]methyl] pyrazole-3-carboxamide], with not below 80%; and `Cc1cc(Cl)cc(C(N)=O)c1NC(=O)c1cc(Cn2nnc(-c3cccc(C(F)(F)F)c3)n2)nn1-c1ncccc1Cl` [Compound P97, N-(2-carbamoyl-4-chloro-6-methyl-phenyl)-2-(3-chloro-2-pyridyl)-5-[[5-[3-(trifluoromethyl)phenyl]tetrazol-2-yl]methyl]pyrazole-3-carboxamide], with not below 80%; and `Cc1cc(-c2nnn(Cc3cc(C(=O)Nc4c(C)cc(Cl)cc4C(N)=O)n(-c4ncccc4Cl)n3)n2)ccc1Cl` [Compound P99, N-(2-carbamoyl-4-chloro-6-methyl-phenyl)-5-[[5-(4-chloro-3-methyl-phenyl)tetrazol-2-yl]methyl]-2-(3-chloro-2-pyridyl)pyrazole-3-carboxamide], with not below 80%.

As to `Cc1cc(Cl)cc(C(N)=O)c1NC(=O)c1cc(Cn2nnc(-c3ccc(F)c(Br)c3)n2)nn1-c1ncccc1Cl` [Compound P102, 5-[[5-(3-bromo-4-fluoro-phenyl)tetrazol-2-yl]methyl]-N-(2-carbamoyl-4-chloro-6-methyl-phenyl)-2-(3-chloro-2-pyridyl)pyrazole-3-carboxamide], the pest or weed control at 50 µg/mL in assay [2] was not below 80%. The same measure, in the same setting: as for `Cc1cc(Cl)cc(C(N)=O)c1NC(=O)c1cc(Cn2nnc(-c3ccccc3)n2)nn1-c1ncccc1Cl` [Compound P105, N-(2-carbamoyl-4-chloro-6-methyl-phenyl)-2-(3-chloro-2-pyridyl)-5-[(5-phenyltetrazol-2-yl)methyl] pyrazole-3-carboxamide], the figure is not below 80%.

The values above are taken from patent US20240308988A1, “Method For Controlling Diamide Resistant Pests and Compounds Therefor” (priority 2021, published 2024).
